Assays:
[1] = target: influenza virus A/WSN/33 NA-Q136L (Influenza A virus, UniProt P03470, Q120L); assay type: biochemical, influenza A virus A/WSN/1933 (H1N1)
[2] = test system: influenza virus A/WSN/33 NA-I427M
[3] = target: influenza virus A/WSN/33 NA-N294S (Influenza A virus, UniProt P03470, N279S); assay type: biochemical, influenza A virus A/WSN/1933 (H1N1)
[4] = target: influenza virus A/WSN/33 NA-H274Y (Influenza A virus, UniProt P03470, H259Y); assay type: biochemical, influenza A virus A/WSN/1933 (H1N1)
[5] = target: influenza virus A/WSN/33 NA-Y155H (Influenza A virus, UniProt P03470, Y139H); assay type: biochemical, influenza A virus A/WSN/1933 (H1N1)
[6] = test system: influenza virus A/WSN/33 NA-I427Q
[7] = target: influenza virus A/WSN/33 NA-I427M (Influenza A virus, UniProt P03470, I411M); settings: read-out: IC50, NA-I427M
[8] = target: IAV WSN/33 NA-wt (whole virus) (Influenza A virus, UniProt P03470); assay: biochemical; parameters: species or system influenza A virus A/WSN/1933 (H1N1); settings: read-out: IC50, NA-wt
[9] = target: influenza virus A/WSN/33 NA-I427Q (Influenza A virus, UniProt P03470, I411Q); settings: read-out: IC50, NA-I427Q

Compound	FC, NA-Q136L [1]	FC, NA-I427M [2]	FC, NA-N294S [3]	FC, NA-H274Y [4]	FC, NA-Y155H [5]	FC, NA-I427Q [6]	IC50 [1] [nM]	IC50 [7] [nM]	IC50 [3] [nM]	IC50 [8] [nM]	IC50 [4] [nM]	IC50 [5] [nM]	IC50 [9] [nM]
Cc1cc(N=Nc2ccc(N=Nc3c(O)c(S(=O)(=O)O)cc4cc(S(=O)(=O)O)ccc34)cc2C)ccc1N=Nc1ccc2cc(S(=O)(=O)O)cc(S(=O)(=O)O)c2c1 [Compound 1, 7-[2-[4-[2-[4-[2-(2-hydroxy-3,6-disulfo-1-naphthalenyl)diazenyl]-2-methylphenyl]diazenyl]-2-methylphenyl]diazenyl]-1,3-naphthalenedisulfonic acid]	2	2	1	3	1	1							
CC(=O)N[C@H]1[C@H]([C@H](O)[C@H](O)CO)OC(C(=O)O)=C[C@@H]1O [DANA, 2,3-dehydro-2-deoxy-N-acetylneuraminic acid, reference compound]	1	1	3	1	3		2330 ± 1320	2210 ± 620	8120 ± 2070	2440 ± 1080	2510 ± 1380	8360 ± 3130	12800 ± 750
Cc1ccccc1/N=N/c1ccc(/N=N/c2c(O)ccc3cc(S(=O)(=O)O)cc(S(=O)(=O)O)c23)c(C)c1 [Compound 5]	2	2	3	3	1	2							
O=S(=O)(O)c1ccc2c(/N=N/c3ccc(Sc4ccc(/N=N/c5c(O)ccc6cc(S(=O)(=O)O)ccc56)cc4)cc3)c(O)ccc2c1 [Compound 2]	2	1	1	2	0.2	1							
